Measured values taken from patent publication US5889002A, “Fused 1,2,4-thiadiazine and fused 1,4-thiazine derivatives, their preparation and use” (Novo Nordisk A/S, priority 1996, dated 1999).

Columns and labels:
RIN 5F cell line = assay: 86Rb+ efflux from a β-cell line (Rb-efflux in rin 5F cells); format: cell-based; settings: 1 h at room temperature, Ringer buffer pH 7.1, four parameter logistic curve, read-out: EC50, inhibition of Rb-efflux
Method: ^86 Rb^+ efflux from a β-cell line
The RIN 5F cell line was grown in RPMI 1640 with Glutamax I, supplemented with 10% fetal calf serum (from GibcoBRL, Scotland, UK) and maintained in an atmosphere of 5% CO2 /95% air at 37° C. The cells were detached with a Trypsin-EDTA solution (from GibcoBRL, Scotland, UK), resuspended in medium, added 1 mCi/ml ^86 Rb^+ and replated into microtiter plates (96 well cluster 3596, sterile, from Costar Corporation,Massachusetts, U.S.A.) at a density of 50000 cells/well in […], and grown 24 hours before use in assay.
The plates were washed 4 times with Ringer buffer (150 mM NaCl, 10 mM Hepes, 3.0 mM KCl, 1.0 mM CaCl2, 20 mM Sucrose, pH 7.1). Eighty μl Ringer buffer and 1 μl control- or test compound dissolved in DMSO was added. After incubation 1 h at room temperature with a lid, 50 μl of the supernatant was transferred to PicoPlates (Packard Instrument Company, Connecticut, U.S.A.) and 100 μl MicroScint40 (Packard Instrument Company, Connecticut, U.S.A.) added. The plates were counted in TopCount (Packard Instrument Company, Connecticut, U.S.A.) for 1 min/well at the ^32 P program. […]

rat aorta rings = assay: Relaxation of rat aorta rings; settings: rat thoracic aorta rings, phenylephrine-contracted to 80% of maximum response; cumulative addition; read-out: EC50 (concentration required to evoke a 50% relaxation of the tissue)
Method: The activity of the compounds as potassium channel openers can also be measured as relaxation of rat aortas rings according to the following procedure:
A section of rat thoracic aorta between the aortic arch and the diaphragm was dissected out and mounted as ring preparations as described by Taylor P. D. et al, Brit J. Pharmacol, 111, 42-48 (1994).
After a 45 min. equilibration period under a tension of 2 g, the preparations were contracted to achieve 80% of the maximum response using the required concentration of phenylephrine. When the phenylephrine response reached a plateau, potential vasodilatory agents were added cumulatively to the bath in small volumes using half log molar increments at 2 min intervals. Relaxation was expressed at the percentage of the contracted tension. The potency of a compound was expressed as the concentration required to evoke a 50% relaxation of the tissue.
Relaxation of rat aorta rings

Row | SMILES | EC50 (RIN 5F cell line) [µM] | EC50 (rat aorta rings) [µM]
1 | CC(C)C(C)NC1=NS(=O)(=O)c2sc(Cl)cc2N1 (centres unmarked) [Compound 1, 6-Chloro-3-(1,2-dimethylpropyl)amino-4H-thieno[3,2-e]-1,2,4-thiadiazine 1,1-dioxide] | 2.7 | 1.2
2 | CCNC1=NS(=O)(=O)c2sc(Cl)cc2N1 [Compound 2, 6-Chloro-3-ethylamino-4H-thieno[3,2-e]-1,2,4-thiadiazine 1,1-dioxide] |  | 15
3 | C[C@H](CO)NC1=NS(=O)(=O)c2sc(Cl)cc2N1 [Compound 16, (R)-6-Chloro-3-(2-hydroxy-1-methylethyl)amino-4H-thieno[3,2-e]-1,2,4-thiadiazine 1,1-dioxide] | 5.9 | 6.1
